Experimental findings from US20220047476A1, “A METHOD FOR FIGHTING FEMALE BODY ODORS” (SYMRISE AG, priority 2018, published 2022) are described below.

Data set [1] in a line: Malodor reduction via sensory testing, sweat malodor model. More on the design: species or system human. The settings on record: trained female panel N=9, 1=no odor to 10=strongest imaginable, averaged, malodor only 5.8, 0.0% control 5.1. The method, then:
(§1) A trained sensory panel consisting of females, (N=9) ages 40-55 years old evaluated the samples. Panelists are regularly trained on fragrance and malodor intensity scoring and must pass routine screening and calibration tests to remain on the panel. Panelist onboarding and orientation was performed following ASTM Committee E-18 on Sensory Evaluation of Materials and Products, Guidelines for the Selection and Training of Sensory Panel Members (ASTM STP758, American Society for Testing and Materials, 1981, pp. 1-35). Panelists were selected based on health, interest, availability, descriptive and scaling ability, olfactory acuity, attitude and personality. Panelists are introduced to intensity measurement using selected intensity standards and exercised in the use of the scaling system to quantify intensity.
(§2) Training and evaluation was performed for six weeks following orientation. Each panelist completed practice sessions where they were exposed to different types of odors (malodor, fragrance, etc.) and different substrates (fabric, clothing, blotter cards, jars, etc.). Panelist inclusion was dependent upon panel administrator discussions, specific response evaluation, and comparison to standards.
(§3) In this example, feminine wash was formulated with various concentrations of 5-methyl-2-(1-methylethyl)-cyclohexanol acetate, as shown in Table 1 below. A sample without of 5-methyl-2-(1-methylethyl)-cyclohexanol acetate was used as a control.
(§4) The sweat malodor model is comprised of malodors including 3-methyl-2-hexenoic acid and 3-mercapto-3-methyl-1-hexanol. The feminine odor model contains acetic acid, 2-methyl-butyric acid, valeric acid and trimethyl amine. The trained panelists subjectively evaluated the samples using a 10-point scoring scale (1=no odor to 10=strongest imaginable). Panelists are first shown the malodor only sample as a reference, and asked to rate its odor intensity. Panelists are then shown the test samples in a blinded fashion labelled with a 3 digit code. There is a 45 second wait time between samples to prevent olfactive fatigue. […]

A short description of data set [2]: Malodor reduction via sensory testing, feminine (vaginal) odor model. The settings on record: trained female panel N=9, 1=no odor to 10=strongest imaginable, averaged, malodor only 6.0, 0.0% control 5.3. More on the design: species or system human. The method, then: as §1, §2, §3, §4
The nature of data set [3]: Vapor pressure reduction: malodors in closed flask headspace, cold finger collection, GC FID. Format: physicochemical. The settings on record: with 1 g active in separate dish, sealed 500 mL flask, four hours, cold finger 10° C. The method, then: Two 500 mL Erlenmeyer flasks were prepared with a blend of five malodor substances (200 mg total; indole, methyl phenyl acetate, skatol, p-cresyl isovalerate, isoamyl phenylacetate) in a small dish. To one flask, in a separate small dish, was added 1 g of 5-methyl-2-(1-methylethyl)-cyclohexanol acetate. Each flask was sealed with a cold finger through which water at 10° C. was passed. After four hours, the flasks were opened and the cold fingers were washed with diethyl ether. This eluent is representative of the headspace above the sample, and quantifies the malodor concentration in the air. The collected diethyl ether fractions were made to a standard volume and analyzed by gas chromatography (GC FID). This experiment is meant to analyze the interaction of malodor with 5-methyl-2-(1-methylethyl)-cyclohexanol acetate in a way that mimics a consumer's experience.

On to `CC(=O)O[C@@H]1C[C@H](C)CC[C@H]1C(C)C` [5-methyl-2-(1-methylethyl)-cyclohexanol acetate], for which the results for the “Sweat Malodor intensity rating from 1 to 10” value in data set [1] (0.1% active in feminine wash), in data set [1] (0.2% active in feminine wash) and in data set [1] (0.5% active in feminine wash) were 4.8, 3.0 and 2.2, respectively. The results for the “Feminine (Vaginal) Malodor intensity rating from 1 to 10” value in data set [2] (0.1% active in feminine wash), in data set [2] (0.2% active in feminine wash) and in data set [2] (0.5% active in feminine wash) were 4.5, 3.3 and 2.6, respectively. The “Relative Amount of Malodor: skatol” value in data set [3] (without active 0.06) came out at 0.0003. Besides, the “Relative Amount of Malodor: p-cresyl isovalerate” value in data set [3] (without active 0.10) was found to be 0.0002. The “Relative Amount of Malodor: isoamyl phenylacetate” value in data set [3] (without active 1.20) amounted to 0.0000. For the same compound, in data set [3] (without active 1.30), the “Relative Amount of Malodor: indole” value was 0.0300. For the same compound, in data set [3] (without active 1.50), the “Relative Amount of Malodor: methyl phenyl acetate” value came to 0.0000.
